Measurements reported in BigSolDB 2.1.

CCOC(=O)c1c(CSc2ccccc2)n(C)c2cc(Br)c(O)c(CN(C)C)c12.Cl.O
solubility (mole fraction)
Conditions | 293.15 K | 298.15 K | 303.15 K | 308.15 K | 313.15 K | 318.15 K | 323.15 K | 328.15 K | 333.15 K
in DMF | 0.0228 | 0.0244 | 0.0276 | 0.0317 | 0.0351 | 0.0396 | 0.0457 | 0.0513 | 0.0596
in NMP | 0.0325 | 0.0352 | 0.0375 | 0.0417 | 0.0462 | 0.0503 | 0.0554 | 0.0635 | 0.0722
in THF | 0.000382 | 0.000492 | 0.000678 | 0.000947 | 0.00125 | 0.00163 | 0.00211 | 0.00265 | –
in acetone | 0.000193 | 0.000252 | 0.000364 | 0.000524 | 0.000696 | 0.000937 | 0.00128 | – | –
in ethanol | 0.00973 | 0.0116 | 0.0132 | 0.0154 | 0.018 | 0.0234 | 0.0294 | 0.0366 | 0.0436
in ethyl acetate | 7.86e-05 | 0.000101 | 0.000125 | 0.000158 | 0.0002 | 0.000245 | 0.000295 | 0.000354 | 0.000426
in isopropanol | 0.00114 | 0.00161 | 0.0021 | 0.0029 | 0.00356 | 0.00476 | 0.00602 | 0.00749 | 0.00955
in methanol | 0.0405 | 0.0442 | 0.0494 | 0.0541 | 0.0622 | 0.0715 | 0.0786 | 0.0903 | –
in n-butanol | 0.00344 | 0.00441 | 0.00545 | 0.00709 | 0.00865 | 0.0105 | 0.0127 | 0.0159 | 0.0203
in n-propanol | 0.00522 | 0.00628 | 0.00728 | 0.00878 | 0.0112 | 0.0141 | 0.0171 | 0.0214 | 0.027
in water | 5.82e-05 | 7.34e-05 | 8.66e-05 | 0.000108 | 0.000126 | 0.000156 | 0.000204 | 0.000251 | 0.000309
